In the Deep4Chem optical property database:
One block for each compound: values may come before it.

Assay: photoluminescence quantum yield (fraction); solvent given as SMILES

Structure (SMILES): Cc1cc2c(o1)c(Br)cc1c(C)cc(=O)oc12
photoluminescence quantum yield (in C1CCCCC1): 0.0004
photoluminescence quantum yield (in C1COCCO1): 0.002
photoluminescence quantum yield (in CC#N): 0.0014
photoluminescence quantum yield (in CCO): 0.005
photoluminescence quantum yield (in OCC(F)(F)F): 0.005

Structure (SMILES): CC1(C)c2ccccc2N(c2ccc(-c3cnc(C#N)nc3)cc2)c2ccccc21
photoluminescence quantum yield (in Cc1ccccc1): 0.311
photoluminescence quantum yield (in N#Cc1ccc2c(c1)c1ccccc1n2-c1cccc(-n2c3ccccc3c3ccccc32)c1): 1

Structure (SMILES): c1ccc(-c2cc(-c3ccc4ccc5c(-c6ccnc(-c7ccccn7)c6)ccc6ccc3c4c65)ccn2)nc1
photoluminescence quantum yield (in C1CCOC1): 0.65
photoluminescence quantum yield (in CC#N): 0.56
photoluminescence quantum yield (in CCC#N): 0.56
photoluminescence quantum yield (in CCCC#N): 0.58
photoluminescence quantum yield (in CCCCCC): 0.6
photoluminescence quantum yield (in CCCO): 0.38
photoluminescence quantum yield (in CCO): 0.39
photoluminescence quantum yield (in CO): 0.27
photoluminescence quantum yield (in Cc1ccccc1): 0.56

Structure (SMILES): O=S(=O)(c1ccccc1)c1ccc(-n2c3ccccc3c3c2c2ccccc2n3-c2ccccc2)cc1
photoluminescence quantum yield (in Cc1ccccc1): 0.195

Structure (SMILES): CC(C)(C)c1ccc(N2c3ccc(C(C)(C)C)cc3B3c4cc(C(C)(C)C)ccc4N(c4ccc(C(C)(C)C)cc4)c4cc(-n5c6ccc(C(C)(C)C)cc6c6cc(C(C)(C)C)ccc65)cc2c43)cc1
photoluminescence quantum yield (in Cc1ccccc1): 0.975

Structure (SMILES): COc1ccc(N(c2ccccc2)c2ccc(OC)cc2)cc1
photoluminescence quantum yield (in Cc1ccccc1): 0.03

Structure (SMILES): c1ccc(-c2nc(-c3ccccc3)nc(-c3ccc(-n4c5ccccc5c5c6oc7ccccc7c6ccc54)cc3)n2)cc1
photoluminescence quantum yield (in O=P(c1ccccc1)(c1ccccc1)c1ccccc1Oc1ccccc1P(=O)(c1ccccc1)c1ccccc1): 0.853

Structure (SMILES): N#Cc1nc(N(Cc2ccc(I)cc2)Cc2ccc(I)cc2)c(C#N)nc1N(Cc1ccc(I)cc1)Cc1ccc(I)cc1
photoluminescence quantum yield (in ClC(Cl)Cl): 0.79

Structure (SMILES): c1ccc(-c2nc3c4ccccc4c4ccccc4c3n2-c2ccc(-c3nc4c5ccccc5c5ccccc5c4n3-c3ccccc3)cc2)cc1
photoluminescence quantum yield (in Cc1ccccc1): 0.82

Structure (SMILES): CC(C)[Si](C#Cc1c2cc3ccccc3cc2c(C#Cc2ccccc2)c2cc3ccccc3cc12)(C(C)C)C(C)C
photoluminescence quantum yield (in ClCCl): 0.12

Structure (SMILES): FC(F)(F)c1ccc2oc3nc4oc5ccc(N6c7ccccc7Oc7ccccc76)cc5c4cc3c2c1
photoluminescence quantum yield (in ClC(Cl)Cl): 0.055

Structure (SMILES): c1ccc(-c2nn(-c3ccccc3)c3nc4ccc(N(c5ccccc5)c5cccc6ccccc56)cc4cc23)cc1
photoluminescence quantum yield (in C1CCCCC1): 0.57
photoluminescence quantum yield (in C1CCOC1): 0.57
photoluminescence quantum yield (in CC#N): 0.41
photoluminescence quantum yield (in CC(C)=O): 0.53
photoluminescence quantum yield (in CCCCCl): 0.56
photoluminescence quantum yield (in CCCCOCCCC): 0.56
photoluminescence quantum yield (in CN(C)C=O): 0.47

Structure (SMILES): COc1ccc(/C=C/c2nc(N3CCOCC3)c3c([n+]2[O-])CCCC3)cc1
photoluminescence quantum yield (in ClCCl): 0.12

Structure (SMILES): CCN(CC)c1ccc(-c2nc3c4ccccc4n(C)c3nc2-c2ccc(B(c3c(C)cc(C)cc3C)c3c(C)cc(C)cc3C)cc2)cc1
photoluminescence quantum yield (in C1CCOC1): 0.27

Structure (SMILES): CCCCCCN1C(=O)c2cc(-c3ccc(-n4c5ccccc5c5ccccc54)cc3)c(-c3ccc(-n4c5ccccc5c5ccccc54)cc3)cc2C1=O
photoluminescence quantum yield (in ClC(Cl)Cl): 0.78
photoluminescence quantum yield (in c1ccc2c(c1)c1ccccc1n2-c1ccc(-c2ccc(-n3c4ccccc4c4ccccc43)cc2)cc1): 0.7

Results, then the compound that gave them:

photoluminescence quantum yield (in CCO): 0.637
Structure (SMILES): COc1ccc(C(=O)OCc2c(C)c(=O)n3c(=O)c(C)c(C)n23)cc1

photoluminescence quantum yield (in CS(C)=O): 0.063
Structure (SMILES): CCOC(=O)C1=C(N)n2c(=O)c3ccccc3c(=O)n2C1c1ccc(C)cc1 (configuration not stated)

photoluminescence quantum yield (in C1COCCO1): 0.95
photoluminescence quantum yield (in CC#N): 0.75
photoluminescence quantum yield (in CO): 0.76
photoluminescence quantum yield (in ClCCl): 0.95
Structure (SMILES): COC(=O)c1nc2c(N)nc(N(C)C)nc2n1Cc1ccccc1

photoluminescence quantum yield (in CC#N): 0.017
photoluminescence quantum yield (in ClCCCl): 0.024
Structure (SMILES): Cc1ccc2nc3c(=O)[nH]c(=O)[nH]c3nc2c1

photoluminescence quantum yield (in CC1CCCO1): 0.15
Structure (SMILES): O=c1cc2c(Br)c(O)c3cccc4ccc(o1)c2c43

photoluminescence quantum yield (in ClCCl): 0.24
Structure (SMILES): c1ccc(-p2c3ccccc3c3sc4ccccc4c32)cc1 (configuration not stated)

photoluminescence quantum yield (in ClCCl): 0.62
Structure (SMILES): CCCCn1c(-c2ccc(-c3nnc(-c4cccs4)o3)cc2)nc2c3ccccc3c3ccccc3c21

photoluminescence quantum yield (in CS(C)=O): 0.89
Structure (SMILES): c1ccc(-c2nc3sc4ccccc4c3s2)cc1
